# Assay results as given in patent publication US5132320A, “Squalene synthetase inhibitors” (Merck & Co., Inc., priority 1990, dated 1992).
# Experiments:
# Fus. oxysporum MF4014 = assay: antifungal microtiter dilution assay, filamentous fungi (MIC); format: cell-based; conditions: Fusarium oxysporum, 42 hours, 28° C., read-out: Minimum Inhibitory Concentration
# Procedure: The compounds are particularly active towards filamentous fungi and yeasts including Candida albicans and Crypt. neoformans. The sensitivity of filamentous fungi and yeast was determined using inhibitor dilution assays in microtiter format. The compounds were dissolved in DMSO at 2 mg/ml and serially diluted in 0.1M phosphate buffer, pH 7.0 in the microtiter dish from 100 to 0.006 μg/ml. A standardized spore suspension for testing the filamentous fungi was prepared by inoculating Antibiotic Medium #3 containing 1.5% agar with spores such that 1.5×10^3 colony forming units were added per well. The microtiter wells were filled with 50 μl of buffer containing compound and 50 μl of inoculated medium. The sensitivity of yeasts was determined by inoculating yeast nitrogen base containing 1% dextrose (YNB/G) with aliquots of an overnight yeast culture grown in Yeast Morphology (YM) media at 35° C. and diluting in YNB/G to yield a final concentration of 1.5-7.5×10^3 colony forming units/well. One hundred fifty μl of inoculated media was added per well. To test the sensitivity of yeast, compound was solubilized in 10 percent aqueous DMSO at 2.56 mg/ml. The compound was diluted serially in YNB/G from 128 to 0.06 μg/ml. The wells were filled with 150 μl of drug containing media. […]
# Squalene Synthetase = target: T1, Squalene Synthetase (Rattus norvegicus, UniProt Q02769); assay: squalene synthetase assay (rat liver microsomes, [4-14C]farnesyl-pyrophosphate); format: biochemical; conditions: 30° C., 20 minutes, pH 7.5
# T1 construct: from tissue; host or cells: liver microsomes of male Charles River CD rats fed 0.1% lovastatin for 4 days
# T1 sequence (Q02769 1-416): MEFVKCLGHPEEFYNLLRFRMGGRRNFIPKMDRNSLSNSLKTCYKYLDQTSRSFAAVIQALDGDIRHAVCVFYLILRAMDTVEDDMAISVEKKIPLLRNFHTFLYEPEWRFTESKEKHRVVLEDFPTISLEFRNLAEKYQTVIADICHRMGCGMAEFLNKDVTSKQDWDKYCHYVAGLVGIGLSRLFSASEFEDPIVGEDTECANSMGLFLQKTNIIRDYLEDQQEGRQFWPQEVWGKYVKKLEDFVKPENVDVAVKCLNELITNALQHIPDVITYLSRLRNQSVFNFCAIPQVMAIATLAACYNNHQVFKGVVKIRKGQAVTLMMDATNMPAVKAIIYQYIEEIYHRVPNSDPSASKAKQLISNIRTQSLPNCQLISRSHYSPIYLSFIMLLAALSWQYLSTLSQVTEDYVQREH
# Procedure: The intrinsic squalene synthetase inhibitory activity of representative compounds of this invention was measured by the standard in vitro protocol described below:
# PREPARATION OF MICROSOMES
# Male, Charles River CD rats (120 to 150 g) were fed a diet containing 0.1% lovastatin for 4 days. The livers from these rats were homogenized in 5 volumes (ml/g) of ice cold 50 mM HEPES (4-(2-hydroxyethyl)-1-piperazine-ethanesulfonic acid), 5 mM EDTA (ethylenediaminetetraacetic acid) pH 7.5 with a Potter-Elvehjem type tissue grinder. The homogenate was centrifuged twice at 20,000×g for 15 minutes at 4° C., discarding the pellet each time. The supernatant was then centrifuged at 100,000×g for 1 hour at 4° C. The resulting microsomal pellet was resuspended in a volume of the above homogenizing buffer equal to one-fifth the volume of the original homogenate. This microsomal preparation has a protein concentration of about 7 mg/ml. The microsomal suspensions were stored in aliquots at -70° C. Squalene synthetase activity in these aliquots is stable for at least several months.
# Partial Purification of Prenyl Transferase
# Prenyl transferase was purified to use in the enzymatic synthesis of radiolabelled farnesyl pyrophosphate. […]
MIC (Fus. oxysporum MF4014) [µg/mL],IC50 (Squalene Synthetase) [µM],SMILES
> 100,0.005,CC=CCCCCC=CCCCCC(=O)OC1C(O)C2(CCC(C)C(O)C(C)CC=Cc3ccccc3)OC(C(=O)O)C(O)(C(=O)O)C1(C(=O)O)O2 (stereo not drawn) [Compound A]
,5,CC=CCCCCC=CCCCCC(=O)OC1C(O)C2(CCC(C)C(O)C(C)CC=Cc3ccccc3)OC(C(=O)OC)C(O)(C(=O)OC)C1(C(=O)OC)O2 (stereo not drawn) [Compound B]
